Data taken from patent US11986532B2 (Arvinas Operations, Inc., priority 2021, dated 2024).

Target: T1, BCL6 (Homo sapiens, UniProt P41182)
T1 construct: endogenous in cells; host or cells: T47D breast cancer epithelial cells
Assay: Immunofluorescence protocol for high content imaging of BCL6 (degradation) in T47D cells, 3 days compound treatment
Type: cell-based
Settings: for Dmax: T47D, read-out: Mean Dmax (%)** category; for DC50: read-out: Mean DC50 (nM)* category
How it was run: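 For degradation, compound series (3-fold, 11 points, top 0.1 or 1 μM final) were added to adherent T47D cultures for 3 days. BCL6 immunostaining used a rabbit antibody at 1:300 and an Alexa-488 secondary, with imaging at 10× magnification.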

SMILES | Dmax | DC50
CNC(=O)COc1cc2cc(Nc3nc(N4CCC(O[C@H]5C[C@H](N6CCN(c7cc8c(cc7OC)C(=O)N(C7CCC(=O)NC7=O)C8=O)CC6)C5)CC4)ncc3Cl)ccc2n(C(C)C)c1=O (stereo partly drawn) [Compound 423, 2-({6-[(5-chloro-2-{4-[(1r,3r)-3-{4-[2-(2,6-dioxopiperidin-3-yl)-6-methoxy-1,3-dioxo-2,3-dihydro-1H-isoindol-5-yl]piperazin-1-yl}cyclobutoxy]piperidin-1-yl}pyrimidin-4-yl)amino]-2-oxo-1-(propan-2-yl)-1,2-dihydroquinolin-3-yl}oxy)-N-methylacetamide] | ≥ 70% | < 10 nM
CCC(C)n1c(=O)c(OCC(=O)NC)cc2cc(Nc3nc(N4CCC(O[C@H]5C[C@H](N6CCC(c7ccc8c(c7F)CN(C7CCC(=O)NC7=O)C8=O)CC6)C5)CC4)ncc3Cl)ccc21 (stereo partly drawn) [Compound 424, 2-{[1-(butan-2-yl)-6-[(5-chloro-2-{4-[(1r,3r)-3-{4-[2-(2,6-dioxopiperidin-3-yl)-4-fluoro-1-oxo-2,3-dihydro-1H-isoindol-5-yl]piperidin-1-yl}cyclobutoxy]piperidin-1-yl}pyrimidin-4-yl)amino]-2-oxo-1,2-dihydroquinolin-3-yl]oxy}-N-methylacetamide] | ≥ 70% | < 10 nM
CNC(=O)COc1cc2cc(Nc3nc(N4CCC(O[C@H]5C[C@H](N6CCC(c7ccc8c(c7F)CN(C7CCC(=O)NC7=O)C8=O)CC6)C5)CC4)ncc3Cl)ccc2n(CC(C)C)c1=O (stereo partly drawn) [Compound 425, 2-({6-[(5-chloro-2-{4-[(1r,3r)-3-{4-[2-(2,6-dioxopiperidin-3-yl)-4-fluoro-1-oxo-2,3-dihydro-1H-isoindol-5-yl]piperidin-1-yl}cyclobutoxy]piperidin-1-yl}pyrimidin-4-yl)amino]-1-(2-methylpropyl)-2-oxo-1,2-dihydroquinolin-3-yl}oxy)-N-methylacetamide] | ≥ 70% | < 10 nM
CNC(=O)COc1cc2cc(Nc3nc(N4CCC(O[C@H]5C[C@H](N6CC=C(c7ccc8c(c7F)CN(C7CCC(=O)NC7=O)C8=O)CC6)C5)CC4)ncc3Cl)ccc2n(C(C)C)c1=O (stereo partly drawn) [Compound 426, 2-({6-[(5-chloro-2-{4-[(1r,3r)-3-{4-[2-(2,6-dioxopiperidin-3-yl)-4-fluoro-1-oxo-2,3-dihydro-1H-isoindol-5-yl]-1,2,3,6-tetrahydropyridin-1-yl}cyclobutoxy]piperidin-1-yl}pyrimidin-4-yl)amino]-2-oxo-1-(propan-2-yl)-1,2-dihydroquinolin-3-yl}oxy)-N-methylacetamide] | ≥ 70% | < 10 nM
CNC(=O)COc1cc2cc(Nc3nc(N4CCC(CN5CCC6(CC5)CC5(CN(c7ccc8c(c7F)CN(C7CCC(=O)NC7=O)C8=O)C5)C6)CC4)ncc3Cl)ccc2n(C(C)C)c1=O (stereo not drawn) [Compound 427] | ≥ 70% | < 10 nM
CNC(=O)COc1cc2cc(Nc3nc(N4CCC(O[C@H]5C[C@H](N6CC=C(c7ccc8c(c7Cl)CN([C@H]7CCC(=O)NC7=O)C8=O)CC6)C5)CC4)ncc3Cl)ccc2n(C(C)C)c1=O [Compound 428] | ≥ 70% | < 10 nM
CNC(=O)COc1cc2cc(Nc3nc(N4CCC(O[C@H]5C[C@H](N6CC=C(c7ccc8c(c7Cl)CN(C7CCC(=O)NC7=O)C8=O)CC6)C5)CC4)ncc3Cl)ccc2n(C(C)C)c1=O (stereo partly drawn) [Compound 429, 2-({6-[(5-chloro-2-{4-[(1r,3r)-3-{4-[4-chloro-2-(2,6-dioxopiperidin-3-yl)-1-oxo-2,3-dihydro-1H-isoindol-5-yl]-1,2,3,6-tetrahydropyridin-1-yl}cyclobutoxy]piperidin-1-yl}pyrimidin-4-yl)amino]-2-oxo-1-(propan-2-yl)-1,2-dihydroquinolin-3-yl}oxy)-N-methylacetamide] | ≥ 70% | < 10 nM
CNC(=O)COc1cc2cc(Nc3nc(N4CCC(O[C@H]5C[C@H](N6CC[C@@H](c7ccc8c(c7F)CN(C7CCC(=O)NC7=O)C8=O)C(C)(C)C6)C5)CC4)ncc3Cl)ccc2n(C(C)C)c1=O (stereo partly drawn) [Compound 430, 2-({6-[(5-chloro-2-{4-[(1r,3r)-3-[(4R)-4-[2-(2,6-dioxopiperidin-3-yl)-4-fluoro-1-oxo-2,3-dihydro-1H-isoindol-5-yl]-3,3-dimethylpiperidin-1-yl]cyclobutoxy]piperidin-1-yl}pyrimidin-4-yl)amino]-2-oxo-1-(propan-2-yl)-1,2-dihydroquinolin-3-yl}oxy)-N-methylacetamide] | ≥ 70% | < 10 nM
CNC(=O)COc1cc2cc(Nc3nc(N4CCC(O[C@H]5C[C@H](N6CC[C@H](c7ccc8c(c7F)CN(C7CCC(=O)NC7=O)C8=O)C(C)(C)C6)C5)CC4)ncc3Cl)ccc2n(C(C)C)c1=O (stereo partly drawn) [Compound 431, 2-({6-[(5-chloro-2-{4-[(1r,3r)-3-[(4S)-4-[2-(2,6-dioxopiperidin-3-yl)-4-fluoro-1-oxo-2,3-dihydro-1H-isoindol-5-yl]-3,3-dimethylpiperidin-1-yl]cyclobutoxy]piperidin-1-yl}pyrimidin-4-yl)amino]-2-oxo-1-(propan-2-yl)-1,2-dihydroquinolin-3-yl}oxy)-N-methylacetamide] | ≥ 70% | < 10 nM
